Measurements as given in patent publication US20100099614A1, “Antimicrobial Peptides and Methods of Use” (priority 2008, published 2010).
Like-named read-outs stand apart in the source and are kept apart here.

System: multiple drug resistant M. tuberculosis strain vertulo
Details: for Anti-tuberculosis activity to multi-drug resistant strain (vertulo) Fold (compared to D4): relative to D4

## CC[C@@H](C)[C@@H](NC(=O)[C@@H](CC(C)C)NC(=O)[C@@H](CCCCN)NC(=O)[C@@H](CC(C)C)NC(=O)[C@@H](CC(C)C)NC(=O)[C@H](NC(=O)[C@@H](Cc1c[nH]cn1)NC(=O)[C@@H](CC(C)C)NC(=O)[C@@H](CCCCN)NC(=O)[C@H](NC(=O)[C@@H](CCCCN)NC(=O)[C@@H](CCCCN)NC(=O)[C@@H](CC(C)C)NC(=O)[C@@H](CO)NC(=O)[C@@H](CCCCN)NC(=O)[C@@H](Cc1ccccc1)NC(=O)[C@H](NC(=O)[C@@H](CCCCN)NC(=O)[C@@H](CC(C)C)NC(=O)[C@@H](Cc1ccccc1)NC(=O)[C@@H](CO)NC(=O)[C@@H](CCCCN)NC(=O)[C@@H](Cc1c[nH]c2ccccc12)NC(=O)[C@@H](CCCCN)NC(C)=O)[C@H](C)O)[C@H](C)O)[C@H](C)O)C(=O)N[C@H](CO)C(=O)N[C@H](CO)C(N)=O [D5]
  Anti-tuberculosis activity to multi-drug resistant strain (vertulo) Fold (compared to D4): >10.3 fold

## CC[C@@H](C)[C@@H](NC(=O)[C@@H](C)NC(=O)[C@@H](CCCCN)NC(=O)[C@@H](CC(C)C)NC(=O)[C@@H](C)NC(=O)[C@H](NC(=O)[C@@H](Cc1c[nH]cn1)NC(=O)[C@@H](CC(C)C)NC(=O)[C@H](NC(=O)[C@H](NC(=O)[C@@H](CCCCN)NC(=O)[C@@H](CCCCN)NC(=O)[C@@H](C)NC(=O)[C@@H](CO)NC(=O)[C@@H](CCCCN)NC(=O)[C@@H](Cc1ccccc1)NC(=O)[C@H](NC(=O)[C@@H](CCCCN)NC(=O)[C@@H](CC(C)C)NC(=O)[C@@H](Cc1ccccc1)NC(=O)[C@@H](CO)NC(=O)[C@@H](CCCCN)NC(=O)[C@@H](Cc1c[nH]c2ccccc12)NC(=O)[C@@H](CCCCN)NC(C)=O)[C@H](C)O)[C@H](C)O)C(C)C)[C@H](C)O)C(=O)N[C@H](CO)C(=O)N[C@H](CO)C(N)=O [D1]
  Anti-tuberculosis activity to multi-drug resistant strain (vertulo) MIC: 57 µg/mL
  Anti-tuberculosis activity to multi-drug resistant strain (vertulo) Fold (compared to D4): >8.4 fold
Multiple drug resistant strain vertulo
  Anti-tuberculosis activity to multi-drug resistant strain (vertulo) MIC: 19.1 µM
